What was measured:
[1] = molecular target: T1, human CB1 receptor (Homo sapiens, UniProt P21554); assay: GTPγS binding on membranes of CHO cells expressing the human CB1 receptor; type: biochemical; parameters: expressed in transfected cells; host or cells: CHO cells (G418 selection); membranes; details: CHO cell membranes, [35S] GTPγS
Method: Membrane preparation: CHO cells expressing the human CB1 receptor were grown to 80% confluence in Ham's F-12 Nutrient Medium (Invitrogen) containing 10% fetal bovine serum (Invitrogen), 1% pen/strep (Invitrogen), 1% Nonessential amino acids (Invitrogen) and 500 μg/ml G418 (Invitrogen). Cells were released from flasks using Cell Dissociation Buffer (Invitrogen). Cells were pelleted by centrifugation at 500×G for 5 minutes. Membranes were prepared by resuspending cells in ice cold Assay Buffer (25 mM Tris pH 7.4, 5 mM EDTA, 5 mM EGTA, Complete Protease Inhibitor (Roche)). Cells were lysed with 12 strokes of a dounce homogenizer. Unlysed cells were pelleted by centrifugation at 500×G for 5 minutes. Membranes were pelleted by centrifugation at 25,000×G for 30 minutes. Membranes were resuspended in TEE, dounced 12 strokes, and pelleted a second time at 25,000×G for 30 minutes. Membrane pellet was resuspended in 50 mM Tris pH 7.4, 100 mM NaCl, 3 mM MgCl2, 0.2 mM EGTA, Complete Protease Inhibitor (Roche). Protein concentration was determined using the Micro-BCA Protein Assay Kit (Pierce) using BSA as a standard. Membranes were frozen and stored at −80 degrees Celsius until use. GTPγS Binding: 40 μl of test compound was incubated with 20 μl of [^35S] GTPγS (Perkin Elmer) (1250 Ci/millimole) and 140 μl of membrane homogenate (5 ug/well) in polypropylene 96-well plates (Corning). Final reaction conditions were 50 mM Tris pH 7.4, 100 mM NaCl, 3 mM […], 0.2 mM EGTA, 0.04% BSA. After incubation at 37 degrees Celsius for 45 minutes reactions were harvested by vacuum filtration through Unifilter GF/B-96 filters (Perkin Elmer) using a FilterMate Plate Harvester (Perkin Elmer). Filters were rinsed 4 times with ice cold 50 mM Tris pH 7.4, 3 mM MgCl2, 0.2 mM EGTA and dried at 50 degrees Celsius for at least 30 minutes. 40 μl of Microscint-20 (Perkin Elmer) was added per well, and plates were counted using a Top-Count Microplate Scintillation Counter (Perkin Elmer). Binding data were analyzed and EC50 values were calculated using Graph Pad Prism 4.0 Software.

[2] = molecular target: T1, human CB1 receptor; assay: Human CB1 receptor binding, [3H] CP-55,940 displacement on HEK cell membranes; parameters: expressed in transfected cells; membranes; details: [3H] CP-55,940 500 pM
Method: The Human CB1 receptor binding affinity and other biological activities of the compounds of this invention are determined by the following procedures.
Membrane preparation: Human Embryonic Kidney (HEK) Cells expressing the human CB1 receptor under transcriptional regulation of a tetracycline inducible promoter were grown in Dulbecco's Modified Essential Medium with sodium pyruvate (Invitrogen, Carlsbad, Calif.) containing 10% tetracycline free fetal bovine serum (Clonetech, Mountain View, Calif.) 100 μg/ml hygromycin (Calbiochem, San Diego, Calif.), 5 μg/ml blasticidin (Invitrogen). CB1 receptor expression was induced by addition of 1 μg/ml doxycycline (Calbiochem) and incubation for an additional 24 hours. Cells were released from flasks using Cell Dissociation Buffer (Invitrogen). Cells were pelleted by centrifugation at 500×G for 5 minutes. Membranes were prepared by resuspending cells in ice cold TEE Buffer (25 mM Tris pH 7.4, 5 mM EDTA, 5 mM EGTA, Complete Protease Inhibitor (Roche, Basel, Switzerland)). Cells were lysed with 12 strokes of a dounce homogenizer. Unlysed cells were pelleted by centrifugation at 500×G for 5 minutes. Membranes were pelleted by centrifugation at 25,000×G for 30 minutes. Membranes were resuspended in TEE, dounced 12 strokes, and pelleted a second time at 25,000×G for 30 minutes. Membrane pellet was resuspended in 50 mM Tris pH 7.4, 100 mM NaCl, 3 mM MgCl2, 0.2 mM EGTA, Complete Protease Inhibitor (Roche). Protein concentration was determined using the Micro-BCA Protein Assay Kit (Pierce, Rockford, Ill.) using BSA as a standard. Membranes were quick frozen and stored at −80 degrees Celsius until use. Binding experiments: 50 μl of test compound was incubated with 50 μl, of [^3H] CP-55,940 (Perkin Elmer, Boston, Mass.) (final concentration 500 pM) and 150 μl of membrane homogenate (1 μg/well) in polypropylene 96-well plates (Corning, Acton, Mass.). Final reaction conditions were 50 mM Tris pH 7.4, 100 mM NaCl, 3 mM MgCl2, 0.2 mM EGTA, 0.04% BSA. Nonspecific binding was determined by incubation with 50 μM WIN-55,212-2 (Tocris, Ellisville, Mo.). After incubation at room temperature for 60 minutes reactions were harvested by vacuum filtration through Unifilter GF/B-96 filters (Perkin Elmer) that had been presoaked in assay buffer containing 0.5% BSA (Sigma, St. Louis, Mo.) using a FilterMate Plate Harvester (Perkin Elmer). Filters were rinsed 4 times with 50 mM Tris pH 7.4, 0.025% Tween20 and dried at 50 degrees Celsius for at least 30 minutes. 40 μl of Microscint-20 (Perkin Elmer) was added per well, and plates were counted using a Top-Count Microplate Scintillation Counter (Perkin Elmer). Binding data were analyzed and EC50 and Ki values calculated using Graph Pad Prism 4.0 Software.

T1 sequence (P21554 whole entry): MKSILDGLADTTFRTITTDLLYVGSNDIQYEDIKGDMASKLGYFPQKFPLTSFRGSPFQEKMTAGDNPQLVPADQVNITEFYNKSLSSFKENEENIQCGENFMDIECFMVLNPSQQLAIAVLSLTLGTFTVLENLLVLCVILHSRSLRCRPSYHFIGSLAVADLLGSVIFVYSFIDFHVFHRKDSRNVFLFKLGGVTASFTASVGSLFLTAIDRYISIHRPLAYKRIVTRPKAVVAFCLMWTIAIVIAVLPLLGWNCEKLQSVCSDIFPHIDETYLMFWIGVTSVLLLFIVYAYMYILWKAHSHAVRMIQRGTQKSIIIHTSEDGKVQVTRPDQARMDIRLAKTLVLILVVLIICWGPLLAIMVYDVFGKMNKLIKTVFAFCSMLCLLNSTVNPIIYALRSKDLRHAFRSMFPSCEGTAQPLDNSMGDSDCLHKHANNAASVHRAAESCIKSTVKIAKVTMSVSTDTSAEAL

| SMILES | EC50 [1] [nM] | Ki [2] [nM] |
| --- | --- | --- |
| CC(C)(C)[C@H](NC(=O)n1c(=O)n(CC2CCC(F)(F)CC2)c2ccccc21)C(N)=O [Example 306] | 3.45 | 0.31 |
| CC(C)(C)[C@H](NC(=O)n1c(=O)n(CC2CCCCC2)c2c(F)cccc21)C(N)=O [Example 172] | 7.8 | 0.77 |
| CC(C)(C)[C@H](NC(=O)n1c(=O)n(CCC2CCC2)c2ccccc21)C(N)=O [Example 217] | 3.2 | 1.28 |
| CC(C)(C)[C@H](NC(=O)n1c(=O)n(CC2CCOCC2)c2ccccc21)C(=O)NCCCO [Example 318] | 230 | 23.9 |
| O=C(N[C@H]1CCCC[C@@H]1O)n1c(=O)n(CC2CCCCC2)c2ccccc21 [Example 191] | 394 | 10.5 |
| CC(C)(C)[C@H](NC(=O)n1c(=O)n(CC2CCCCC2)c2ncccc21)C(N)=O [Example 226] | 62.1 | 5.34 |
| CCCCCn1c(=O)n(C(=O)N[C@H]2CCCC[C@@H]2O)c2ccccc21 [Example 193] | 622 | 67.4 |
| CC(C)(C)[C@H](NC(=O)n1c(=O)n(Cc2ccc(F)cc2)c2ccccc21)C(N)=O [Example 363] | 4.74 | 0.36 |
| CC(C)(C)[C@H](NC(=O)n1c(=O)n(Cc2ccccc2)c2ccccc21)C(N)=O [Example 348] | 60.1 | 5.64 |
| Cc1ccc2c(c1)n(CC1CCCCC1)c(=O)n2C(=O)N[C@H](C(N)=O)C1CCCCC1 [Example 273] | 244 | 57.5 |
| CC(C)(C)[C@H](NC(=O)n1c(=O)n(CCCC(F)(F)F)c2ccccc21)C(N)=O [Example 293] | 32.4 | 1.45 |
| CCCCCn1c(=O)n(C(=O)N[C@H](CO)C(C)(C)C)c2ccccc21 [Example 178] | 137 | 8.45 |
| Cc1cc(CNC(=O)n2c(=O)n(CC3CCOCC3)c3ccccc32)c(C(F)(F)F)o1 [Example 320] | 98.6 | 4.2 |
| CC(C)(C)[C@H](NC(=O)n1c(=O)n(CC2CCCCC2)c2cc(Br)ccc21)C(N)=O [Example 307] | 49.5 | 1.85 |
| Cc1ccc2c(c1)n(CC1CCCCC1)c(=O)n2C(=O)NC1(C(N)=O)CCCCC1 [Example 266] | > 2850 | 109 |
| CCCCCn1c(=O)n(C(=O)N[C@H](C(N)=O)C(C)(C)C)c2cccnc21 [Example 365] | 1030 | 95.1 |
| CC(C)(C)[C@H](NC(=O)n1c(=O)n(CC2CCC2)c2ccccc21)C(N)=O [Example 201] | 45.3 | 4.94 |
| CNC(=O)[C@@H](NC(=O)n1c(=O)n(CC2CCOCC2)c2ccccc21)C(C)(C)C [Example 303] | 36.6 | 5.71 |
| Cc1cc(CNC(=O)n2c(=O)n(CC3CCOCC3)c3ccccc32)c(C)o1 [Example 311] | 57 | 2.03 |
| CC(C)(C)[C@H](NC(=O)n1c(=O)n(Cc2ccccc2F)c2ccccc21)C(N)=O [Example 357] | 123 | 2.4 |
| CC(C)(C)[C@H](NC(=O)n1c(=O)n(CC2CCCCC2)c2cc(Cl)ccc21)C(N)=O [Example 170] | 1.86 | 0.28 |

| SMILES | EC50 [1] [nM] | Ki [2] [nM] |
| --- | --- | --- |
| Cc1ccc2c(c1)n(CC1CCCCC1)c(=O)n2C(=O)N[C@@H](Cc1ccccc1)C(N)=O [Example 268] | 2580 | 130 |
| Cc1cc(CNC(=O)n2c(=O)n(CC3CCOCC3)c3ccccc32)no1 [Example 312] | 380 | 69.5 |
| CC(C)(C)[C@H](NC(=O)n1c(=O)n(CC2CCOCC2)c2cc(F)ccc21)c1nnc(N)o1 [Example 347] | 229 | 9.5 |
| CC(C)(C)[C@H](NC(=O)n1c(=O)n(CCC(F)(F)F)c2ccccc21)C(N)=O [Example 227] | 245 | 10.2 |
| CC(C)(C)[C@H](NC(=O)n1c(=O)n(CC2CCOCC2)c2cc(F)ccc21)C(N)=O [Example 290] | 25.1 | 19.2 |
| CC(C)(C)[C@H](NC(=O)n1c(=O)n(CCCCC#N)c2ccccc21)C(N)=O [Example 223] | 1860 | 102 |
| CC(C)(C)[C@H](NC(=O)n1c(=O)n(CC2CCOCC2)c2ccccc21)C(N)=O [Example 132, N-[(1S)-1-(aminocarbonyl)-2,2-dimethylpropyl]-2-oxo-3-(tetrahydro-2H-pyran-4-ylmethyl)-2,3-dihydro-1H-benzimidazole-1-carboxamide] | 12.7 | 3.4 |
| CCCCCn1c(=O)n(C(=O)N[C@H](C(N)=O)C(C)C)c2ccccc21 [Example 205] | 422 | 69 |
| O=C(N[C@H]1CCCc2ccccc21)n1c(=O)n(CC2CCCCC2)c2ccccc21 [Example 197] | 13.2 | 0.78 |
| CC(C)(C)[C@H](NC(=O)n1c(=O)n(CC2CCCCC2)c2ccccc21)C(N)=O [Example 200] | 96.9 | 0.52 |
| O=C(N[C@H]1c2ccccc2C[C@H]1O)n1c(=O)n(CC2CCCCC2)c2ccccc21 [Example 188] | 87.7 | 1.9 |
| CC(C)(C)[C@H](NC(=O)n1c(=O)n(Cc2cccc(F)c2)c2ccccc21)C(N)=O [Example 362] | 106 | 3.7 |
| CC(C)(C)[C@H](NC(=O)n1c(=O)n(CC2CCOCC2)c2cc(F)ccc21)C(=O)NCCCO [Example 355] | 361 | 6.72 |
| CC(C)(C)[C@H](NC(=O)n1c(=O)n(CC2CCCCC2)c2ccc(F)cc21)C(N)=O [Example 165] | 27.4 | 0.82 |
| CC(C)(C)[C@H](NC(=O)n1c(=O)n(CC2CCOCC2)c2ccccc21)C(=O)NCC(N)=O [Example 302] | 407 | 82.3 |
| CC(C)(C)[C@H](NC(=O)n1c(=O)n(CC2CCCCC2)c2c(Cl)cccc21)C(N)=O [Example 173] | 2.5 | 0.34 |
| Cc1nc(CNC(=O)n2c(=O)n(CC3CCOCC3)c3ccccc32)cs1 [Example 341] | 355 | 24.7 |
| CCCCn1c(=O)n(C(=O)N[C@H](C(N)=O)C(C)(C)C)c2ccccc21 [Example 292] | 75.1 | 2.09 |
| Cc1cccc2c1n(CC1CCCCC1)c(=O)n2C(=O)N[C@H](C(N)=O)C(C)(C)C [Example 174] | 8.3 | 0.32 |
| CC(C)[C@H](NC(=O)n1c(=O)n(CC2CCCCC2)c2ccccc21)C(N)=O [Example 203] | 74.1 | 8.23 |
| CC(C)(C)[C@H](NC(=O)n1c(=O)n(Cc2ccccc2)c2ccccc21)C(=O)NCCO [Example 360] | 149 | 19.3 |
